Source: patent US20200352913A1, “NEW METHOD FOR TREATING DENGUE VIRUS INFECTION” (INSERM (INSTITUT NATIONAL DE LA SANTÉ ET DE LA RECHERCHE …, priority 2017, published 2020)
“Also recorded” adds a separate entry of the source.

How the values were obtained:
DENV2_16681 [1] = conditions: Diamond et al., 2002; targets de novo purine biosynthesis pathway; cited from earlier work
DENV NS1 glycosylation = DENV NS1 glycosylation under NGI-1 (immunoblot, data not shown); type: cell-based; conditions: dose dependent
Text: (§1) The OST complex is known to be required for flavivirus infection through mechanisms that are poorly understood (Marceau et al., 2016; Savidis et al., 2016; Zhang et al., 2016). In mammalians, there are two OST complexes, each composed of a catalytic subunit isoform (STT3A or STT3B) associated with a set of shared subunits (RPN1, RPN2, DDOST, DAD1 and OST4) (Cherepanova et al., 2016). Their main function is to transfer a preassembled oligosaccharide to selected asparagine residues within the consensus sequence asparagine-X-serine/threonine (Cherepanova et al., 2016). […] To test whether the OST complex contributes to NS1 or NS4B N-glycosylation, we transfected HEK-293T cells with a siRNA pool targeting RPN1, DDOST, STT3A or STT3B. […] We then examined the effect of NGI-1, a recently discovered N-linked glycosylation inhibitor that directly and reversibly interacts with the OST catalytic subunits (Lopez-Sambrooks et al., 2016). […] To pinpoint the effect of hypoglycosylation on NS1 stability, we transfected HEK-293T cells with plasmids encoding FLAG-NS1 WT or mutants lacking the first (N130Q), the second (N207Q), or both N-linked glycosylation sites (N130Q/N207Q) (data not shown).

ZIKV NS1 glycosylation = ZIKV NS1 glycosylation under NGI-1 (immunoblot, data not shown); type: cell-based; conditions: dose dependent
Text: as §1

DENV2_16681 [2] = test: DENV infection of HeLa cells pre-incubated with drug (FIG. 2A); type: cell-based, Dengue virus
Protocol: (§2) FIG. 2. […] (A) HeLa cells were pre-incubated for 24h with increased concentration of NGI-1, or for 3h with MPA prior infection with DENV2_16681 (MOI 5). MPA, Mycophenolic acid. (B) Replication kinetics of DENV2 in HeLa replicon cells challenged with NGI-1 (2 μM) or MPA (10 μM) along the experiment duration. (C) Supernatants from HEK-293T cells transfected with FLAG-NS plasmids, were subjected to ELISA to quantify secreted NS1. (D) HeLa cells were incubated for 24 hours with NGI-1 and challenged in continuous presence of the drug with DENV1 (MOI 1), DENV2_16681 (MOI 5), DENV2_JAM (MOI 5), DENV3_THAI (MOI 5), WNV (MOI 1), ZIKV (MOI 1), CHIKV (MOI 5) or HSV (MOI 0.3). (E) Similarly treated primary skin fibroblast and monocyte derived dendritic cells (MDDC) were challenged with DENV2_16681 (MOI 5) and ZIKV_HD78788 (MOI 2). (D and E) The levels of infected cells were assessed 24h post infection by flow cytometry using respective anti-viral antibodies. (A-E) Data shown are means±SD of two independent experiments. Significance was calculated using a one-way ANOVA statistical test with a Dunnett's multiple (A, B and C) or Tukey comparison test (D and E). (n.s., not significant; **p<0.001; […]).
(§3) The OST complex is known to be required for flavivirus infection through mechanisms that are poorly understood (Marceau et al., 2016; Savidis et al., 2016; Zhang et al., 2016). […]

[3] = tested on: DENV2 replicon (vRNA amplification); test: Replication kinetics of DENV2 in HeLa replicon cells (FIG. 2B); type: cell-based, Dengue virus; conditions: NGI-1 2 μM
Protocol: as §2, §3

secreted NS1 = test: ELISA of secreted NS1 in supernatants (FIG. 2C); type: cell-based, DENV
Protocol: as §2, §3

[4] = data not shown
Text: as §1

Cell proliferation = Cell proliferation over time (FIG. 3); type: cell-based; conditions: NGI-1 2 μM, measured over time, RLU
Protocol: FIG. 3. Cell proliferation is not affected by NGI-1. Cell proliferation is measured over time after incubation with NGI-1 (2 μM), MPA (10 μM) or respective mock control. Data shown are means±S.D. of one representative experiment of three replicates. RLU, relative light units.

[5] = tested on: DENV1, DENV2_16681, DENV2_JAM, DENV3_THAI; test: Infection of HeLa cells by DENV serotypes, flow cytometry (FIG. 2D); type: cell-based, Dengue virus; conditions: 24 h pre-incubation, continuous drug, 24h post infection
Protocol: as §2

WNV = test: Infection of HeLa cells by WNV, flow cytometry (FIG. 2D); type: cell-based, West Nile virus; conditions: MOI 1, 24h post infection
Protocol: as §2

HSV = test: Infection of HeLa cells by HSV, flow cytometry (FIG. 2D); type: cell-based; conditions: MOI 0.3, 24h post infection
Protocol: as §2

DENV2_16681 [6] = test: DENV infection of human primary skin fibroblasts (FIG. 2E); type: cell-based, Dengue virus; conditions: DENV2_16681 MOI 5, 24h post infection
Protocol: as §2

DENV2_16681 [7] = test: DENV infection of monocyte-derived dendritic cells (FIG. 2E); type: cell-based, Dengue virus; conditions: DENV2_16681 MOI 5, 24h post infection
Protocol: as §2

Row | Structure (SMILES) | DENV replication inhibition (literature) (DENV2_16681 [1]) | DENV NS1 glycosylation (DENV NS1 glycosylation) | ZIKV NS1 glycosylation (ZIKV NS1 glycosylation) | antiviral activity compared with MPA (DENV2_16681 [2]; FIGS. 2A and B, NGI-1 2 μM, MPA 10 μM in replicon cells) | DENV infection (DENV2_16681 [2]; HeLa cells, 24h pre-incubation with increased concentration of NGI-1, DENV2_16681 MOI 5, dose dependent) | vRNA amplification [3] | NS1 secretion (secreted NS1) | cytotoxicity [4] | cell proliferation / antiproliferative effects (Cell proliferation) | infection by the four DENV serotypes [5] | infection by WNV (WNV) | infection by HSV (HSV) | DENV infection of human primary skin fibroblasts (DENV2_16681 [6]) | DENV infection of monocyte-derived dendritic cells (DENV2_16681 [7])
1 | COc1c(C)c2c(c(O)c1C/C=C(\C)CCC(=O)O)C(=O)OC2 [MPA, mycophenolic acid] | a well-known DENV replication inhibitor | – | – | – | – | – | – | – | – | – | – | – | – | –
2 | Cc1cnc(NC(=O)c2cc(S(=O)(=O)N(C)C)ccc2N2CCCC2)s1 [NGI-1] | – | strongly impaired | strongly impaired | comparable to mycophenolic acid | significantly inhibited | blocked | impaired | without any significant cytotoxicity | not affected; also recorded: without any significant cytotoxicity (data not shown) or antiproliferative effects | blocked | blocked | not | significantly reduced | significantly reduced
